Type in all cases: functional, organism-based
Details in all cases: 3D7

Assay [1] concerns Plasmodium falciparum. As to the kind of experiment: MMV: Modified 3H-Hyoxanthine uptake assay; RPMI 1640 (Invitrogen cat#23400-013) without Sodium Bicarbonate (NaHCO3).
Assay [2] relates to Plasmodium falciparum. As to the kind of experiment: MMV: 3H-Hyoxanthine uptake assay; RPMI 1640 (Invitrogen cat#11875-093) with Sodium Bicarbonate (NaHCO3) […].
For assay [3], the system named is Plasmodium falciparum. As to the kind of experiment: MMV: Modified 3H-Hyoxanthine uptake assay; 1% O2, 5% CO2 in N2.
Assay [4] relates to Plasmodium falciparum. Description: MMV: 3H-Hyoxanthine uptake assay; 5% O2, 5% CO2 in N2.

In general, IC50 refers to the concentration at which inhibition is half-maximal. For `CN(C)CCCNc1c2ccccc2nc2ccccc12`, the IC50 in assay [1] came out at 594 nM; in assay [2], 190 nM; in assay [3] it was 59 nM; in assay [4] it was 360 nM.
For `Cc1cccc(Nc2nc(N)c3ccccc3n2)c1` the same measures were 332 nM, 283 nM, 230 nM and 299 nM.
Consider `CCC1(C)CC(CCNCc2ccccc2O)(c2ccc(C)cc2)CCO1` (stereo not drawn), for which the IC50 was 277 nM in assay [1], 266 nM in assay [2], 236 nM in assay [3] and 540 nM in assay [4].
Turning to `Cc1ccc(-c2cc3nc4c(c(O)n3n2)CCCC4)cc1`, the IC50 in assay [1] was 1260 nM; in assay [2], 889 nM; in assay [3], greater than 1000 nM; in assay [4], greater than 1000 nM.
In the case of `CCCN(CCC)CC(O)COc1ccccc1C(=O)Nc1ccccc1` (stereo not drawn), the half-maximal inhibitory concentration (IC50) was determined as 347 nM in assay [1], 315 nM in assay [2], 169 nM in assay [3] and 281 nM in assay [4].
As for `COc1ccc(-c2nc3cc(Cc4ccc5[nH]c(-c6ccc(OC)cc6)nc5c4)ccc3[nH]2)cc1`, the IC50 in assay [1], in assay [2], in assay [3] and in assay [4] was greater than 1000 nM throughout.
For the compound `COc1ccc(-n2ccnc2SCC(=O)Nc2cc(C)ccc2C)c(OC)c1`, the IC50 in assay [1] was greater than 1000 nM; in assay [2] it was greater than 1000 nM; in assay [3], 431 nM; in assay [4], 793 nM.
Turning to `CCN(CC)CCNc1ccnc2cc(Cl)ccc12`, the IC50 stood at 94 nM in assay [1], 46 nM in assay [2], 18 nM in assay [3] and 40 nM in assay [4].
Consider `Cc1ccc(-c2cc3c(nn2)-c2ccccc2C3=O)cc1`, for which the IC50 in assay [1], in assay [2], in assay [3] and in assay [4] was greater than 500 nM in each case.
In the case of `Oc1ccccc1CNCC12CC3CC(CC(C3)C1)C2`, the IC50 in assay [1] was found to be 121 nM; in assay [2], 104 nM; in assay [3] it was 63 nM; in assay [4], 136 nM.
For the compound `CN(C)c1ccc(C=Cc2nc(=O)c3ccccc3o2)cc1`, the IC50 in assay [1] is 295 nM; in assay [2], 366 nM; in assay [3], greater than 500 nM; in assay [4] it was greater than 500 nM.
For the compound `Cc1cc(C=C2SC(=Nc3ccccc3)N(C3CCCC3)C2=O)c(C)n1-c1ccc(Cl)cc1`, the IC50 in assay [1], in assay [2], in assay [3] and in assay [4] was greater than 1000 nM each time.
As to `CCOc1cc2c(cc1OCC)C(c1cc(OC)c(O)cc1Cl)NCC2` (stereo not drawn), the IC50 stood at 982 nM in assay [1], 746 nM in assay [2], 568 nM in assay [3] and 374 nM in assay [4].
For `Cc1cc(NC(=O)C2c3ccccc3C(=O)N(CC(C)C)C2c2cccs2)no1` (stereo not drawn) the same measures were 385 nM, 213 nM, 183 nM and 300 nM.
For the compound `C=CC12CCN(CC1)C(C(O)c1ccnc3ccc(OC)cc13)C2` (stereo not drawn), the IC50 in assay [1] turned out to be 40 nM; in assay [2], 21 nM.
With `O=C(NCC(c1ccsc1)N1CCCCCC1)c1ccc(C(F)(F)F)cc1` (stereo not drawn), the IC50 is 1120 nM in assay [1] and 425 nM in assay [2].
With `CNCCCNc1ccnc2cc(Cl)ccc12`, the IC50 in assay [1] came to 155 nM; in assay [2], 40 nM; in assay [3], 23 nM; in assay [4], 44 nM.
With `COc1ccc2c(=O)cc(C(Cl)(Cl)Cl)oc2c1`, the IC50 in assay [1] is 789 nM; in assay [2], 942 nM; in assay [3], greater than 1000 nM; in assay [4] it was greater than 1000 nM.
Take `COc1cccc(NC(=O)[C@H](C(C)C)n2c(=O)[nH]c3ccccc3c2=O)c1`: the IC50 in assay [1] was determined as 349 nM; in assay [2], 199 nM; in assay [3], 156 nM; in assay [4] it was 213 nM.
For `CCC(c1ccccc1)c1nn2c(-c3cccs3)nnc2s1` (stereo not drawn) the same measures were 181 nM, 150 nM, 66 nM and 415 nM.
For the compound `COc1ccc(C=C2SC(=N)N(c3ccccc3OC)C2=O)cc1`, the values for the IC50 in assay [1] and in assay [4] were 167 nM and 531 nM, respectively.
Regarding `CC1CN(C(=O)c2sc3ccccc3c2Cl)CC(C)O1` (stereo not drawn), the IC50 in assay [1] is 71 nM; in assay [2], 73 nM; in assay [3], 100 nM; in assay [4], 79 nM.
Take `COc1ccccc1CNC(=O)CCn1c(=O)[nH]c2ccsc2c1=O`: the IC50 in assay [1] came to 432 nM; in assay [2], 367 nM.
On to `CSC1=NC(=Nc2c(C)cccc2C)C2(CCC(C(C)(C)C)CC2)N1c1ccc(Cl)cc1` (stereo not drawn), for which the IC50 in assay [1], in assay [2], in assay [3] and in assay [4] was greater than 1000 nM in each case.
For the compound `CN1CCN(c2ccc(Nc3c4ccccc4nc4ccccc34)cc2)CC1`, the IC50 in assay [1] came to 269 nM; in assay [2], 98 nM; in assay [3] it was 76 nM; in assay [4] it was 117 nM.
Take `COc1ccc2c(c1)OC(O)(C(F)(F)C(F)(F)F)CC2=O` (stereo not drawn): the IC50 in assay [1] was 204 nM; in assay [2], 246 nM; in assay [3] it was 702 nM; in assay [4], 443 nM.
For `CCc1c(C)c(=N)c2ccccc2n1C`, the IC50 in assay [1] came to 784 nM; in assay [2], 425 nM; in assay [3], 338 nM; in assay [4] it was 324 nM.
For `COc1ccc(-c2nc(NC(=O)CS(=O)(=O)c3ccc(F)cc3)sc2C)cc1`, the IC50 worked out at 464 nM in assay [1] and 192 nM in assay [2].
Take `COc1cccc(C=Cc2nc(=O)c3ccccc3o2)c1OC`: the IC50 in assay [1], in assay [2], in assay [3] and in assay [4] was greater than 500 nM each time.
As for `CCN1CCCC1CNc1[nH]cnc2c3cc(Cl)ccc3nc1-2` (stereo not drawn), the IC50 in assay [1], in assay [2], in assay [3] and in assay [4] was greater than 1000 nM each time.
For `CCOC(=O)C1=C(c2ccccc2)N=c2sc(=Cc3cc(C)n(-c4ccc(F)cc4)c3C)c(=O)n2C1c1cccc(OC)c1OC` (stereo not drawn), the IC50 in assay [1], in assay [2], in assay [3] and in assay [4] was greater than 1000 nM each time.
In the case of `Cc1cc(C)c2c(c1)OCN(Cc1ccccc1Cl)C2`, the IC50 came to 362 nM in assay [1] and 276 nM in assay [2].
On to `CCCCCC(=O)N1c2ccccc2N=C2CC(c3ccc(OC)c(OC)c3)CC(O)=C2C1c1ccc(C(F)(F)F)cc1` (stereo not drawn), for which the IC50 in assay [1] is 144 nM; in assay [2], 129 nM.
Turning to `CCOC(=O)c1c(NC(=O)c2ccccc2)sc2c(O)c(CN(CC)CC)ccc12`, the IC50 in assay [3] and in assay [4] was greater than 1000 nM throughout.
In the case of `COc1ccc(-c2c(C)nn3c(N)c(C#N)cnc23)cc1OC`, the IC50 in assay [1] amounted to 457 nM; in assay [2], 330 nM.
Consider `CCCc1cc(O)c2c3c(c(=O)oc2c1)CN(C)CC3`, for which the IC50 in assay [3] and in assay [4] was greater than 1000 nM throughout.
As for `CCn1c(CN2CCN(Cc3ccccc3)CC2)nc2cc(NC(=O)c3cccs3)ccc21`, the figures for the IC50 in assay [1] and in assay [2] were 186 nM and 174 nM, respectively.
As to `CCOC(=O)c1cn(CC)c2cc(N(C)CCc3ccc(OC)c(OC)c3)c(F)cc2c1=O`, the IC50 in assay [3] was determined as 85 nM; in assay [4] it was 345 nM.

The values are drawn from ChEMBL document CHEMBL3301550, “MMV Mararia Box screening against P. falciparum asexual stage parasites under hypoxia and bicarbonate modified culture conditions”.
